# Measurements reported in US20040063662A1, “Selenophene anti-tumor agents” (priority 1996, published 2004).
# Tests used:
# [1] = test system: CCRF-CEM; assay: NCI human tumor cell panel: CCRF-CEM (Leukemia); format: cell-based; settings: Leukemia; for GI50: read-out: Log10 GI50 (converted); for IC (TGI): read-out: Log10 TGI (converted)
# [2] = test system: MOLT-4; assay: NCI human tumor cell panel: MOLT-4 (Leukemia); format: cell-based; settings: MOLT-4, Leukemia; for GI50: read-out: Log10 GI50 (converted); for IC (TGI): read-out: Log10 TGI (converted)
# [3] = test system: RPMI-8226; assay: NCI human tumor cell panel: RPMI-8226 (Leukemia); format: cell-based; settings: RPMI-8226, Leukemia; for GI50: read-out: Log10 GI50 (converted); for IC (TGI): read-out: Log10 TGI
# [4] = test system: A549/ATCC; assay: NCI human tumor cell panel: A549/ATCC (Non-Small Cell Lung Cancer); format: cell-based; settings: Non-Small Cell Lung Cancer; for GI50: read-out: Log10 GI50 (converted); for IC (TGI): read-out: Log10 TGI (converted)
# [5] = test system: EKVX; assay: NCI human tumor cell panel: EKVX (Non-Small Cell Lung Cancer); format: cell-based; settings: Non-Small Cell Lung Cancer; for GI50: read-out: Log10 GI50 (converted); for IC (TGI): read-out: Log10 TGI (converted)
# [6] = test system: HOP-62; assay: NCI human tumor cell panel: HOP-62 (Non-Small Cell Lung Cancer); format: cell-based; settings: HOP-62, Non-Small Cell Lung Cancer; for GI50: read-out: Log10 GI50 (converted); for IC (TGI): read-out: Log10 TGI (converted)
# [7] = test system: NCI-H23; assay: NCI human tumor cell panel: NCI-H23 (Non-Small Cell Lung Cancer); format: cell-based; settings: NCI-H23, Non-Small Cell Lung Cancer; for GI50: read-out: Log10 GI50 (converted); for IC (TGI): read-out: Log10 TGI (converted)
# [8] = test system: HCT-116; assay: NCI human tumor cell panel: HCT-116 (Colon Cancer); format: cell-based; settings: HCT-116, Colon Cancer; for GI50: read-out: Log10 GI50 (converted); for IC (TGI): read-out: Log10 TGI (converted)
# [9] = test system: HCT-15; assay: NCI human tumor cell panel: HCT-15 (Colon Cancer); format: cell-based; settings: HCT-15, Colon Cancer; for GI50: read-out: Log10 GI50 (converted); for IC (TGI): read-out: Log10 TGI (converted)
# [10] = test system: HT29; assay: NCI human tumor cell panel: HT29 (Colon Cancer); format: cell-based; settings: HT-29, HT29, Colon Cancer; for GI50: read-out: Log10 GI50 (converted); for IC (TGI): read-out: Log10 TGI (converted)
# [11] = test system: SW-620; assay: NCI human tumor cell panel: SW-620 (Colon Cancer); format: cell-based; settings: SW-620, Colon Cancer
# [12] = test system: SF-295; assay: NCI human tumor cell panel: SF-295 (CNS Cancer); format: cell-based; settings: SF-295, CNS Cancer; for GI50: read-out: Log10 GI50 (converted); for IC (TGI): read-out: Log10 TGI (converted)
# [13] = test system: SF-539; assay: NCI human tumor cell panel: SF-539 (CNS Cancer); format: cell-based; settings: SF-539, CNS Cancer; for GI50: read-out: Log10 GI50 (converted); for IC (TGI): read-out: Log10 TGI (converted)
# [14] = test system: SNB-19; assay: NCI human tumor cell panel: SNB-19 (CNS Cancer); format: cell-based; settings: SNB-19, CNS Cancer; for GI50: read-out: Log10 GI50 (converted); for IC (TGI): read-out: Log10 TGI (converted)
# [15] = test system: U251; assay: NCI human tumor cell panel: U251 (CNS Cancer); format: cell-based; settings: U-251, U251, CNS Cancer; for GI50: read-out: Log10 GI50 (converted); for IC (TGI): read-out: Log10 TGI (converted)
# [16] = test system: LOX IMVI; assay: NCI human tumor cell panel: LOX IMVI (Melanoma); format: cell-based; settings: Melanoma; for GI50: read-out: Log10 GI50 (converted); for IC (TGI): read-out: Log10 TGI (converted)
# [17] = test system: MALME-3M; assay: NCI human tumor cell panel: MALME-3M (Melanoma); format: cell-based; settings: MALME-3M, Melanoma; for GI50: read-out: Log10 GI50 (converted); for IC (TGI): read-out: Log10 TGI (converted)
# [18] = test system: UACC-62; assay: NCI human tumor cell panel: UACC-62 (Melanoma); format: cell-based; settings: UACC-62, Melanoma; for GI50: read-out: Log10 GI50 (converted); for IC (TGI): read-out: Log10 TGI (converted)
# [19] = test system: OVCAR-3; assay: NCI human tumor cell panel: OVCAR-3 (Ovarian Cancer); format: cell-based; settings: OVCAR-3, Ovarian Cancer; for GI50: read-out: Log10 GI50 (converted); for IC (TGI): read-out: Log10 TGI (converted)
# [20] = test system: OVCAR-4; assay: NCI human tumor cell panel: OVCAR-4 (Ovarian Cancer); format: cell-based; settings: OVCAR-4, Ovarian Cancer; for IC (TGI): read-out: Log10 TGI (converted)
# [21] = test system: OVCAR-8; assay: NCI human tumor cell panel: OVCAR-8 (Ovarian Cancer); format: cell-based; settings: OVCAR-8, Ovarian Cancer; for GI50: read-out: Log10 GI50 (converted); for IC (TGI): read-out: Log10 TGI (converted)
# [22] = test system: 786-0; assay: NCI human tumor cell panel: 786-0 (Renal Cancer); format: cell-based; settings: 786-0, Renal Cancer; for GI50: read-out: Log10 GI50 (converted); for IC (TGI): read-out: Log10 TGI (converted)
# [23] = test system: ACHN; assay: NCI human tumor cell panel: ACHN (Renal Cancer); format: cell-based; settings: Renal Cancer; for GI50: read-out: Log10 GI50 (converted); for IC (TGI): read-out: Log10 TGI (converted)
# [24] = test system: SN12C; assay: NCI human tumor cell panel: SN12C (Renal Cancer); format: cell-based; settings: Renal Cancer; for GI50: read-out: Log10 GI50 (converted); for IC (TGI): read-out: Log10 TGI (converted)
# [25] = test system: PC-3; assay: NCI human tumor cell panel: PC-3 (Prostate Cancer); format: cell-based; settings: PC-3, Prostate Cancer; for GI50: read-out: Log10 GI50 (converted); for IC (TGI): read-out: Log10 TGI (converted)
# [26] = test system: DU-145; assay: NCI human tumor cell panel: DU-145 (Prostate Cancer); format: cell-based; settings: DU-145, Prostate Cancer; for GI50: read-out: Log10 GI50 (converted); for IC (TGI): read-out: Log10 TGI (converted)
# [27] = test system: HS 578T; assay: NCI human tumor cell panel: HS 578T (Breast Cancer); format: cell-based; settings: Breast Cancer; for GI50: read-out: Log10 GI50 (converted); for IC (TGI): read-out: Log10 TGI (converted)
# [28] = test system: MDA-N; assay: NCI human tumor cell panel: MDA-N (Breast Cancer); format: cell-based; settings: Breast Cancer; for GI50: read-out: Log10 GI50 (converted); for IC (TGI): read-out: Log10 TGI (converted)
# [29] = test system: BT-549; assay: NCI human tumor cell panel: BT-549 (Breast Cancer); format: cell-based; settings: BT-549, Breast Cancer; for GI50: read-out: Log10 GI50 (converted); for IC (TGI): read-out: Log10 TGI (converted)
# [30] = test system: HOP-92; assay: NCI human tumor cell panel: HOP-92 (Non-Small Cell Lung Cancer); settings: for GI50: HOP-92, read-out: Log10 GI50 (converted); for IC (TGI): HOP-92, read-out: Log10 TGI
# [31] = test system: NCI-H522; assay: NCI human tumor cell panel: NCI-H522 (Non-Small Cell Lung Cancer); settings: for GI50: NCI-H522, read-out: Log10 GI50 (converted); for IC (TGI): NCI-H522, read-out: Log10 TGI
# [32] = test system: UO-31; assay: NCI human tumor cell panel: UO-31 (Renal Cancer); format: cell-based; settings: UO-31, Renal Cancer
# [33] = read-out: Log10 GI50 (converted)
# [34] = read-out: Log10 TGI (converted)
smiles,measurement,setting,value
O=Cc1ccc(-c2ccc(-c3ccc(C=O)s3)[se]2)s1 [NSC 675345],GI50,[1],> 100 µM
same,IC (TGI),[1],> 100 µM
same,GI50,[2],> 100 µM
same,IC (TGI),[2],> 100 µM
same,GI50,[3],> 100 µM
same,IC (TGI),[3],> 100 µM
same,GI50,[4],> 100 µM
same,IC (TGI),[4],> 100 µM
same,GI50,[5],> 100 µM
same,IC (TGI),[5],> 100 µM
same,GI50,[6],47.9 µM
same,IC (TGI),[6],> 100 µM
same,GI50,[7],21.9 µM
same,IC (TGI),[7],> 100 µM
same,GI50,[8],4.07 µM
same,IC (TGI),[8],> 100 µM
same,GI50,[9],> 100 µM
same,IC (TGI),[9],> 100 µM
same,GI50,[10],> 100 µM
same,IC (TGI),[10],> 100 µM
same,GI50,[11]; [33],38 µM
same,IC (TGI),[11]; [34],> 100 µM
same,GI50,[12],38.9 µM
same,IC (TGI),[12],> 100 µM
same,GI50,[13],> 100 µM
same,IC (TGI),[13],> 100 µM
same,GI50,[14],31.6 µM
same,IC (TGI),[14],> 100 µM
same,GI50,[15],2.29 µM
same,IC (TGI),[15],21.4 µM
same,GI50,[16],> 100 µM
same,IC (TGI),[16],> 100 µM
same,GI50,[17],> 100 µM
same,IC (TGI),[17],> 100 µM
same,GI50,[18],0.347 µM
same,IC (TGI),[18],2.82 µM
same,GI50,[19],2.19 µM
same,IC (TGI),[19],> 100 µM
same,IC (TGI),[20],> 100 µM
same,GI50,[21],> 100 µM
same,IC (TGI),[21],> 100 µM
same,GI50,[22],11 µM
same,IC (TGI),[22],> 100 µM
same,GI50,[23],77.6 µM
same,IC (TGI),[23],> 100 µM
same,GI50,[24],0.257 µM
same,IC (TGI),[24],1.66 µM
same,GI50,[25],> 100 µM
same,IC (TGI),[25],> 100 µM
same,GI50,[26],> 100 µM
same,IC (TGI),[26],> 100 µM
same,GI50,[27],67.6 µM
same,IC (TGI),[27],> 100 µM
same,GI50,[28],> 100 µM
same,IC (TGI),[28],> 100 µM
same,GI50,[29],> 100 µM
same,IC (TGI),[29],> 100 µM
same,GI50,[30],14.5 µM
same,IC (TGI),[30],55 µM
same,GI50,[31],85.1 µM
same,IC (TGI),[31],> 100 µM
O=Cc1ccc(-c2ccc(-c3ccc[se]3)[se]2)[se]1 [NSC 675244],GI50,[1],2.14 µM
same,IC (TGI),[1],7.08 µM
same,GI50,[2],2.4 µM
same,IC (TGI),[2],7.59 µM
same,GI50,[3],2.95 µM
same,IC (TGI),[3],> 100 µM
same,GI50,[4],13.5 µM
same,IC (TGI),[4],26.3 µM
same,GI50,[5],25.1 µM
same,IC (TGI),[5],64.6 µM
same,GI50,[6],12 µM
same,IC (TGI),[6],29.5 µM
same,GI50,[7],13.5 µM
same,IC (TGI),[7],30.9 µM
same,GI50,[8],0.38 µM
same,IC (TGI),[8],13.8 µM
same,GI50,[9],7.41 µM
same,IC (TGI),[9],26.3 µM
same,GI50,[10],3.24 µM
same,IC (TGI),[10],13.2 µM
same,GI50,[12],15.1 µM
same,IC (TGI),[12],28.2 µM
same,GI50,[13],17 µM
same,IC (TGI),[13],33.1 µM
same,GI50,[14],10.2 µM
same,IC (TGI),[14],30.2 µM
same,GI50,[15],0.316 µM
same,IC (TGI),[15],13.8 µM
same,GI50,[16],5.62 µM
same,IC (TGI),[16],20.9 µM
same,GI50,[17],12.6 µM
same,IC (TGI),[17],28.2 µM
same,GI50,[18],0.0708 µM
same,IC (TGI),[18],10.7 µM
same,GI50,[19],0.282 µM
same,IC (TGI),[19],7.94 µM
same,GI50,[20]; [33],1.58 µM
same,IC (TGI),[20],14.8 µM
same,GI50,[21],9.12 µM
same,IC (TGI),[21],30.2 µM
same,GI50,[22],6.03 µM
same,IC (TGI),[22],18.6 µM
same,GI50,[23],10.2 µM
same,IC (TGI),[23],21.9 µM
same,GI50,[24],10 µM
same,IC (TGI),[24],22.4 µM
same,GI50,[32]; [33],15.5 µM
same,IC (TGI),[32]; [34],28.8 µM
same,GI50,[25],12 µM
same,IC (TGI),[25],32.4 µM
same,GI50,[26],12.6 µM
same,IC (TGI),[26],25.1 µM
same,GI50,[27],7.24 µM
same,IC (TGI),[27],21.9 µM
same,GI50,[28],4.57 µM
same,IC (TGI),[28],19.5 µM
same,GI50,[29],12.3 µM
same,IC (TGI),[29],30.9 µM
same,GI50,[30],11 µM
same,IC (TGI),[30],25.7 µM
same,GI50,[31],5.25 µM
same,IC (TGI),[31],17.4 µM
